Source: US9670211B2, “Aza-oxo-indoles for the treatment and prophylaxis of respiratory syncytial virus infection” (Hoffmann-La Roche Inc., priority 2013, dated 2017)
pEC50: −log10 of the molar value.

Test system: RSV Long strain
Assay: Viral Cytopathic Effect (CPE) Assay
Format: cell-based
Conditions: human respiratory syncytial virus, 144 h; RSV Long strain (ATCC), cell viability after 6 days by Cell Counting kit-8
Protocol: Viral Cytopathic Effect (CPE) Assay
To measure anti-RSV activity of compounds, 96-well plates are seeded with 6×10^3 cells per well in Dulbecco's modified Eagle's medium (DMEM) containing 10% fetal bovine serum (FBS). Cells are infected the next day with sufficient RSV Long strain (ATCC) to produce an approximately 80-90% cytopathic effect after 6 days, in the presence of serial half-log diluted compound in a total volume of 200 μL per well. The viability of cells is assessed after 6 days using Cell Counting kit-8 (Dojindo Molecular Technologies). The absorbance at 450 nm and referenced at 630 nm is measured to determine 50% effective concentration (EC50).

Molecule | pEC50
O=C1N(Cc2nc3cc(Cl)ccc3n2[C@@H]2CCS(=O)(=O)C2)c2cnccc2C12CC2 [Example 3-3, 1′-({5-Chloro-1-[(3R)-1,1-dioxidotetrahydrothiophen-3-yl]-1H-benzimidazol-2-yl}methyl)spiro[cyclopropane-1,3′-pyrrolo[2,3-c]pyridin]-2′(1′H)-one] | 8.80
O=C1N(Cc2nc3cc(Cl)ccc3n2C2CS(=O)(=O)C2)c2cnccc2C12CC2 [Example 4-1, 1′-{[5-Chloro-1-(1,1-dioxidothietan-3-yl)-1H-benzimidazol-2-yl]methyl}spiro[cyclopropane-1,3′-pyrrolo[2,3-c]pyridin]-2′(1′H)-one] | 8.19
CC1(C)C(=O)N(Cc2nc3cc(Cl)ccc3n2C2CS(=O)(=O)C2)c2cnccc21 [Example 4-2, 1-{[5-Chloro-1-(1,1-dioxidothietan-3-yl)-1H-benzimidazol-2-yl]methyl}-3,3-dimethyl-1,3-dihydro-2H-pyrrolo[2,3-c]pyridin-2-one] | 7.02
CCC1(CC)C(=O)N(Cc2nc3cc(Cl)ccc3n2C2CS(=O)(=O)C2)c2cnccc21 [Example 4-3, 1-{[5-Chloro-1-(1,1-dioxidothietan-3-yl)-1H-benzimidazol-2-yl]methyl}-3,3-diethyl-1,3-dihydro-2H-pyrrolo[2,3-c]pyridin-2-one] | 6.68
O=C1N(Cc2nc3cc(Cl)ccc3n2C2C[S+]([O-])C2)c2cnccc2C12CC2 (stereo not drawn) [Example 5, 1′-{[5-Chloro-1-(1-oxidothietan-3-yl)-1H-benzimidazol-2-yl]methyl}spiro[cyclopropane-1,3′-pyrrolo[2,3-c]pyridin]-2′(1′H)-one] | 8.30
O=C1N(Cc2nc3cc(Cl)cc(F)c3n2C2CS(=O)(=O)C2)c2cnccc2C12CC2 [Example 6, 1′-{[5-Chloro-1-(1,1-dioxidothietan-3-yl)-7-fluoro-1H-benzimidazol-2-yl]methyl}spiro[cyclopropane-1,3′-pyrrolo[2,3-c]pyridin]-2′(1′H)-one] | 9.05
O=C1CCC(n2c(CN3C(=O)C4(CC4)c4ccncc43)nc3cc(Cl)ccc32)CN1 (stereo not drawn) [Example 7-1, 1′-{[5-Chloro-1-(6-oxopiperidin-3-yl)-1H-benzimidazol-2-yl]methyl}spiro[cyclopropane-1,3′-pyrrolo[2,3-c]pyridin]-2′(1′H)-one] | 8.70
O=C1CC(n2c(CN3C(=O)C4(CC4)c4ccncc43)nc3cc(Cl)ccc32)CN1 (stereo not drawn) [Example 7-2, 1′-{[5-Chloro-1-(5-oxopyrrolidin-3-yl)-1H-benzimidazol-2-yl]methyl}spiro[cyclopropane-1,3′-pyrrolo[2,3-c]pyridin]-2′(1′H)-one] | 8.05
CN1CC(n2c(CN3C(=O)C4(CC4)c4ccncc43)nc3cc(Cl)ccc32)CC1=O (stereo not drawn) [Example 8-1, 1′-{[5-Chloro-1-(1-methyl-5-oxopyrrolidin-3-yl)-1H-benzimidazol-2-yl]methyl}spiro[cyclopropane-1,3′-pyrrolo[2,3-c]pyridin]-2′(1′H)-one] | 8.22
CCN1CC(n2c(CN3C(=O)C4(CC4)c4ccncc43)nc3cc(Cl)ccc32)CC1=O (stereo not drawn) [Example 8-2, 1′-{[5-Chloro-1-(1-ethyl-5-oxopyrrolidin-3-yl)-1H-benzimidazol-2-yl]methyl}spiro[cyclopropane-1,3′-pyrrolo[2,3-c]pyridin]-2′(1′H)-one] | 8.96
O=C1N(Cc2nc3cc(Cl)cc(F)c3n2[C@H]2CCS(=O)(=O)C2)c2cnccc2C12CC2 [Example 9-1, 1′-({5-Chloro-1-[(3S)-1,1-dioxidotetrahydrothiophen-3-yl]-7-fluoro-1H-benzimidazol-2-yl}methyl)spiro[cyclopropane-1,3′-pyrrolo[2,3-c]pyridin]-2′(1′H)-one] | 7.89
O=C1N(Cc2nc3cc(Cl)cc(F)c3n2[C@@H]2CCS(=O)(=O)C2)c2cnccc2C12CC2 [Example 9-2, 1′-({5-Chloro-1-[(3R)-1,1-dioxidotetrahydrothiophen-3-yl]-7-fluoro-1H-benzimidazol-2-yl}methyl)spiro[cyclopropane-1,3′-pyrrolo[2,3-c]pyridin]-2′(1′H)-one] | 9.15
O=C1N(Cc2nc3cc(Cl)ccc3n2C2CCNCC2)c2cnccc2C12CC2 [Example 10-1, 1′-{[5-Chloro-1-(piperidin-4-yl)-1H-benzimidazol-2-yl]methyl}spiro[cyclopropane-1,3′-pyrrolo[2,3-c]pyridin]-2′(1′H)-one] | 7.11
O=C1N(Cc2nc3cc(Cl)ccc3n2C2CNC2)c2cnccc2C12CC2 [Example 10-2, 1′-{[1-(Azetidin-3-yl)-5-chloro-1H-benzimidazol-2-yl]methyl}spiro[cyclopropane-1,3′-pyrrolo[2,3-c]pyridin]-2′(1′H)-one] | 6.86
CC(C)C(=O)N1CC[C@@H](n2c(CN3C(=O)C4(CC4)c4ccncc43)nc3cc(Cl)ccc32)C1 [Example 11, 1′-({5-Chloro-1-[(3R)-1-(2-methylpropanoyl)pyrrolidin-3-yl]-1H-benzimidazol-2-yl}methyl)spiro[cyclopropane-1,3′-pyrrolo[2,3-c]pyridin]-2′(1′H)-one] | 8.52
CS(=O)(=O)N1CC(n2c(CN3C(=O)C4(CC4)c4ccncc43)nc3cc(Cl)ccc32)C1 [Example 12, 1′-({5-Chloro-1-[1-(methylsulfonyl)azetidin-3-yl]-1H-benzimidazol-2-yl}methyl)spiro[cyclopropane-1,3′-pyrrolo[2,3-c]pyridin]-2′(1′H)-one] | 8.74
O=C1N(Cc2nc3cc(Cl)ccc3n2[C@H]2C[C@@H](O)C2)c2cnccc2C12CC2 [Example 14-1, 1′-{[5-Chloro-1-(cis-3-hydroxycyclobutyl)-1H-benzimidazol-2-yl]methyl}spiro[cyclopropane-1,3′-pyrrolo[2,3-c]pyridin]-2′(1′H)-one] | 8.15
O=C1N(Cc2nc3cc(Cl)ccc3n2[C@H]2C[C@H](O)C2)c2cnccc2C12CC2 [Example 14-2, 1′-{[5-Chloro-1-(trans-3-hydroxycyclobutyl)-1H-benzimidazol-2-yl]methyl}spiro[cyclopropane-1,3′-pyrrolo[2,3-c]pyridin]-2′(1′H)-one] | 9.10
O=C1N(Cc2nc3cc(Cl)ccc3n2C2CNS(=O)(=O)C2)c2cnccc2C12CC2 (stereo not drawn) [Example 15, 1′-{[5-Chloro-1-(1,1-dioxido-1,2-thiazolidin-4-yl)-1H-benzimidazol-2-yl]methyl}spiro[cyclopropane-1,3′-pyrrolo[2,3-c]pyridin]-2′(1′H)-one] | 8.80
O=C1N(Cc2nc3cc(Cl)ccc3n2C2CNC3(COC3)C2)c2cnccc2C12CC2 (stereo not drawn) [Example 16, 1′-{[5-Chloro-1-(2-oxa-5-azaspiro[3.4]oct-7-yl)-1H-benzimidazol-2-yl]methyl}spiro[cyclopropane-1,3′-pyrrolo[2,3-c]pyridin]-2′(1′H)-one] | 8.66
O=C1N(Cc2cc3cc(Cl)cc(F)c3n2C2CCS(=O)(=O)C2)c2cnccc2C12CC2 (stereo not drawn) [Example 17, 1′-{[5-Chloro-1-(1,1-dioxidotetrahydrothiophen-3-yl)-7-fluoro-1H-indol-2-yl]methyl}spiro[cyclopropane-1,3′-pyrrolo[2,3-c]pyridin]-2′(1′H)-one] | 9.22
O=C1N(Cc2cc3cc(Cl)ccc3n2C2CCS(=O)(=O)C2)c2cnccc2C12CC2 (stereo not drawn) [Example 18, 1′-{[5-Chloro-1-(1,1-dioxidotetrahydrothiophen-3-yl)-1H-indol-2-yl]methyl}spiro[cyclopropane-1,3′-pyrrolo[2,3-c]pyridin]-2′(1′H)-one] | 8.72
O=C1N(Cc2cc3cc(Cl)cnc3n2C2CCS(=O)(=O)C2)c2cnccc2C12CC2 (stereo not drawn) [Example 19, 1′-{[5-Chloro-1-(1,1-dioxidotetrahydrothiophen-3-yl)-1H-pyrrolo[2,3-b]pyridin-2-yl]methyl}spiro[cyclopropane-1,3′-pyrrolo[2,3-c]pyridin]-2′(1′H)-one] | 8.22

Test system: RSV infection
Assay: not given
Conditions: intramuscularly at 15 mg/kg once a month for the duration of RSV season, selected infants; cited from earlier work

Molecule | reduction of hospitalization rate caused by RSV infection
palivizumab: humanized monoclonal antibody against RSV fusion (F) protein approved for prophylaxis in high-risk infants | 45-55%
